In US3965109A, “Certain aryl amino pyridines” (priority 1971, dated 1976):

Columns and labels:
[1] = test system: Aedes aegypti (mosquito larvae); experiment: Pest toxicity test; format: in vivo; settings: for Mortality grading (kill): 0.01% by weight, water, 1 day
Barley = experiment: Further herbicidal test, various rates; format: in vivo; settings: 5 kg/hectare; scale 0 to 5 (complete kill)
Oat = experiment: Further herbicidal test, various rates; format: in vivo; settings: 5 kg/hectare; scale 0 to 5 (complete kill)
Rice = experiment: Further herbicidal test, various rates; format: in vivo; settings: 5 kg/hectare; scale 0 to 5 (complete kill)
[2] = test system: Piricularia oryzae (rice); format: in vivo; settings: 7 days
Maize = experiment: Herbicidal test, pre- and post-emergence; format: in vivo; settings: 10 kg/ha; scale 0 to 3 (complete kill)
Kale = experiment: Further herbicidal test, various rates; format: in vivo; settings: 5 kg/hectare; scale 0 to 5 (complete kill)
[3] = test system: Agriolimax reticulatus (slugs); experiment: Molluscicidal activity test; format: in vivo, Agriolimax reticulatus (Mull); settings: pellet with 4% by weight; 6 days; 10°C
Procedure: A weighed sample of the compound under test was dissolved in 0.5 c.c. of an ethanol and acetone mixture 50:50 v/v). The solution was diluted with 0.5 cc water and poured onto a calf feeding pellet in a glass Petri dish. The pellet was then air dried for 24 hours. The weight of compound used was chosen so that the dried pellet contained 4% by weight of the active ingredient. Two replicates each consisting of a plastic Petri dish containing a pellet, 2 slugs, and a moistened filter paper to maintain a high relative humidity were used in each test. The dishes were left in a cold room (10°C.) After 6 days the kill was assessed.
The slugs used were Agriolimax reticulatus (Mull), and they had been starved for 24 hours before the commencement of the tests.

[4] = test system: Musca domestica (houseflies); experiment: Pest toxicity test, contact test; format: in vivo; settings: 0.1% by weight; milk/sugar; 2 days; flies sprayed directly
[5] = test system: Plutella maculipennis (diamond back moth larvae); experiment: Pest toxicity test; format: in vivo; settings: in vivo
[6] = test system: Tetranychus telarius (red spider mites, adults); experiment: Pest toxicity test; format: in vivo; settings: 0.1% by weight; French bean; 3 days
Megoura viceae = experiment: Pest toxicity test; format: in vivo; settings: 0.1% by weight; broad bean; 2 days
[7] = test system: Aedes aegypti (mosquito adults); experiment: Pest toxicity test; format: in vivo; settings: 0.01% by weight; plywood; 1 day
Onion = experiment: Further herbicidal test, various rates; format: in vivo; settings: 5 kg/hectare; scale 0 to 5 (complete kill)
[8] = test system: Puccinia recondita (wheat); experiment: Fungicidal test against foliar disease A (foliage spray plus soil drench); format: in vivo; settings: 10 days; for Amount of disease grading, disease A (Table 4): 100 ppm spray and drench
Sugar beet = experiment: Further herbicidal test, various rates; format: in vivo; settings: 5 kg/hectare; scale 0 to 5 (complete kill)
[9] = test system: Pieris brassicae (cabbage white caterpillars); experiment: Pest toxicity test; format: in vivo; settings: 0.1% by weight, 2 days
Pea = experiment: Further herbicidal test, various rates; format: in vivo; settings: 5 kg/hectare; scale 0 to 5 (complete kill)
Aphis fabae = experiment: Pest toxicity test; format: in vivo; settings: 0.1% by weight; broad bean; 2 days
Wheat = experiment: Herbicidal test, pre- and post-emergence; format: in vivo; settings: 10 kg/ha; scale 0 to 3 (complete kill)
Tomato = experiment: Herbicidal test, pre- and post-emergence; format: in vivo; settings: 10 kg/ha; scale 0 to 3 (complete kill)
[10] = test system: Phaedon cochleariae (mustard beetles); experiment: Pest toxicity test; format: in vivo; settings: in vivo
[11] = test system: Tetranychus telarius (red spider mites, eggs); experiment: Pest toxicity test; format: in vivo; settings: 0.1% by weight; French bean; 3 days
Carrot = experiment: Further herbicidal test, various rates; format: in vivo; settings: 5 kg/hectare; scale 0 to 5 (complete kill)
Lettuce = experiment: Herbicidal test, pre- and post-emergence; format: in vivo; settings: 10 kg/ha; scale 0 to 3 (complete kill)
[12] = test system: Plasmopara viticola (vine); experiment: Fungicidal test against foliar disease C (foliage spray plus soil drench); format: in vivo; settings: 10 days
Uncinula necator (vine) = experiment: Fungicidal test against foliar disease D (foliage spray plus soil drench); format: in vivo; settings: 10 days
[13] = test system: Phytophthora infestans (tomato); format: in vivo; settings: 50 ppm spray + 200 ppm soil drench; 3 days
[14] = 50 ppm spray + 200 ppm soil drench

| SMILES | Mortality grading (kill) [1] | Damage to plants, pre-emergence (Barley) | Damage to plants, pre-emergence (Oat) | Damage to plants, pre-emergence (Rice) | Damage to plants, post-emergence (Maize) | Damage to plants, pre-emergence (Maize) | Damage to plants, pre-emergence (Kale) | % Kill of slugs [3] | Mortality grading (kill), contact test [4] | Mortality grading (kill) [5] | Mortality grading (kill) [6] | Mortality grading (kill) (Megoura viceae) | Mortality grading (kill) [7] | Damage to plants, pre-emergence (Onion) | Amount of disease grading, disease A (Table 4) [8] | Damage to plants, pre-emergence (Sugar beet) | Mortality grading (kill) [9] | Mortality grading (kill) (Aphis fabae) | Mortality grading (kill) [10] | Mortality grading (kill) [11] | other results |
| --- | --- | --- | --- | --- | --- | --- | --- | --- | --- | --- | --- | --- | --- | --- | --- | --- | --- | --- | --- | --- | --- |
| N#Cc1c(F)c(F)c(Nc2c(Cl)c(Cl)nc(Cl)c2Cl)c(F)c1F [Compound 42, 4(4-Cyano-2,3,5,6-tetrafluoroanilino)tetrachloropyridine] | 3 (3 represents over 90% kill) | 3 | 4 | 3 | 0 | 3 | 4 | 50% | 3 (3 represents over 90% kill) | 0 (key: O represents less than 30% kill; 1 represents 30 - 49% kill; 2 represents 60 - 90% kill; 3 represents over 90% kill; C indicates a chemosterilant effect.; A indicates an antifeeding effect.) | 3 (3 represents over 90% kill) | 3 (3 represents over 90% kill) | 0 (O represents less than 30% kill) | 5 | 3 (0 to 5) | 5 | 3 (3 represents over 90% kill) | 3 (3 represents over 90% kill) | 0 (key: O represents less than 30% kill; 1 represents 30 - 49% kill; 2 represents 60 - 90% kill; 3 represents over 90% kill; C indicates a chemosterilant effect.; A indicates an antifeeding effect.) | 3 (3 represents over 90% kill) | Damage to plants, post-emergence (Barley): 1; Damage to plants, post-emergence (Oat): 4; Damage to plants, post-emergence (Rice): 0; Amount of disease grading, disease E (Table 4) ([2]; 100 ppm spray and drench): 0 (61 to 100); Damage to plants, post-emergence (Kale): 5; Damage to plants, post-emergence (Sugar beet): 5; Damage to plants, post-emergence (Pea): 1; Damage to plants, pre-emergence (Pea): 2; Damage to plants, post-emergence (Wheat): 0; Damage to plants, pre-emergence (Wheat): 3; Damage to plants, post-emergence (Tomato): 3; Damage to plants, pre-emergence (Tomato): 3; Damage to plants, post-emergence (Carrot): 5; Damage to plants, pre-emergence (Carrot): 5; Damage to plants, post-emergence (Lettuce): 2; Damage to plants, pre-emergence (Lettuce): 3 |
| O=[N+]([O-])c1cc(Cl)c(Nc2c(Cl)c(F)nc(F)c2Cl)c(Cl)c1 [Compound 27, 3,5-Dichloro-2,6-difluoro-4(2,6-dichloro-4-nitroanilino)pyridine] | 3 (3 represents over 90% kill) | 0 | 0 | 0 | 0 | 0 | 4 | 100% | 3 (3 represents over 90% kill) | 0 (key: O represents less than 30% kill; 1 represents 30 - 49% kill; 2 represents 60 - 90% kill; 3 represents over 90% kill; C indicates a chemosterilant effect.; A indicates an antifeeding effect.) | 3 (3 represents over 90% kill) | 3 (3 represents over 90% kill) | 2 (2 represents 60 - 90% kill) | 0 | 0 (61 to 100) | 4 | 0 (O represents less than 30% kill) | 3 (3 represents over 90% kill) | 0 (key: O represents less than 30% kill; 1 represents 30 - 49% kill; 2 represents 60 - 90% kill; 3 represents over 90% kill; C indicates a chemosterilant effect.; A indicates an antifeeding effect.) | 3 (3 represents over 90% kill) | Amount of disease grading, disease C (Table 4) ([12]; 100 ppm spray and drench): 3 (0 to 5); Damage to plants, pre-emergence (Pea): 3; Damage to plants, post-emergence (Wheat): 0; Damage to plants, pre-emergence (Wheat): 0; Amount of disease grading, disease D (Table 4) (Uncinula necator (vine); 100 ppm spray and drench): 3 (0 to 5); Damage to plants, post-emergence (Tomato): 1; Damage to plants, pre-emergence (Tomato): 3; Damage to plants, pre-emergence (Carrot): 4; Damage to plants, post-emergence (Lettuce): 3; Damage to plants, pre-emergence (Lettuce): 3 |
| O=[N+]([O-])c1ccc(Nc2c(Cl)c(Cl)nc(Cl)c2Cl)c([N+](=O)[O-])c1 [Compound 8, Tetrachloro-4(2,4-dinitroanilino)pyridine] | 0 (O represents less than 30% kill) | – | – | – | – | – | – | 100% | 0 (O represents less than 30% kill) | 0 (key: O represents less than 30% kill; 1 represents 30 - 49% kill; 2 represents 60 - 90% kill; 3 represents over 90% kill; C indicates a chemosterilant effect.; A indicates an antifeeding effect.) | 3 (3 represents over 90% kill) | 0 (O represents less than 30% kill) | 0 (O represents less than 30% kill) | – | – | – | 0 (O represents less than 30% kill) | 0 (O represents less than 30% kill) | 0 (key: O represents less than 30% kill; 1 represents 30 - 49% kill; 2 represents 60 - 90% kill; 3 represents over 90% kill; C indicates a chemosterilant effect.; A indicates an antifeeding effect.) | 3 (3 represents over 90% kill) | abnormal growth effects in larva of mosquitos ([1]; in vivo): abnormal growth effects; Amount of disease grading, disease E [2, 14]: 0 (61 to 100); Amount of disease grading, disease A [8, 14]: 0 (61 to 100); Amount of disease grading, disease C [12, 14]: 3 (0 to 5); Amount of disease grading, disease B [13]: 3 (0 to 5); Amount of disease grading, disease D (Uncinula necator (vine); [14]): 0 (61 to 100) |
